Columns and labels:
[1] = target: Nectin-4 on stably transfected PC-3-Nectin4(2-4) cells (UniProt Q96NY8); assay: cell-based or functional assay
FcRn [2] = target: T1, FcRn (Homo sapiens, UniProt P55899); assay: BIAcore (SPR), FcRn captured on His capture chip, pH 6.0, ADC injected
human FcγR I (CD64) [3] = target: T2, human FcγR I (CD64) (Homo sapiens, UniProt P12314); assay: BIAcore (SPR), Fc receptor captured on His capture chip, pH 7.4, ADC injected
[4] = target: human FcγR IIa (human CD32a (H167)) (human) (UniProt P12318); assay: as above
[5] = target: human FcγR IIb (human CD32b) (human) (UniProt P31994); assay: as above
[6] = target: Nectin-4 on stably transfected PC-3-Nectin4(2-4) cells (UniProt Q96NY8); assay: flow cytometry on PC-3-Nectin4(2-4) cells, 2 h at 4° C., anti-human IgG Fc-FITC
[7] = target: recombinant extra-cellular domain of human Nectin-4 protein (human) (UniProt Q96NY8); assay: BIAcore (SPR), ADC captured on chip, human Nectin-4 protein injected at 0.391-50 nM
MDA-MB-468 cells = assay: In vivo efficacy, breast cancer animal model MDA-MB-468 (Group 4 Example 1); design: species or system Nude mice (BALB/cJGpt-Foxn1nu/Gpt); settings: MDA-MB-468 model; for TV(D0): D0 baseline; for PR (D21), partial tumor regression: 8 animals per group
From the text: (§1) MIDA-MB-468 cells, i.e. human breast carcinoma cells (purchased from ATCC), NCI-H322 cells, i.e. lung cancer cells (purchased from ATCC), and T24/nectin-4, i.e. bladder cancer cells (available from the cell bank of the Chinese Academy of Science) were utilized respectively to inoculate Nude mice (BALB/cJGpt-Foxn1nu/Gpt, 4-5 weeks old) for establishing mouse models.
(§2) The antibody-drug conjugate 3d and the control drug PADCVE (Enfortumab Vedotin, purchased from Seattle Gentics) were grouped and studied (as shown in Table 9 below). The mice were intravenously injected (IV) in a volume of 10 mL/kg, respectively; and the mice of the vehicle group were intravenously injected the same volume of vehicle (physiological saline). Tumor volumes were measured 2 times per week, and the mice were weighed and the data was recorded.
(§3) When the experiment was finished, the experimental endpoint was reached, or if the tumor volume reached 1500 mm^3, the animals were sacrificed under CO2 anesthesia and the tumors were dissected and photographed.
(§4) The method for evaluating in vivo efficacy was the same as described in Section 3.3 in the Group 3 of Examples.
A mouse model was established using MDA-MB-468 cells and ADCs 3d and PADCVE were grouped and studied, as described in sections 4.1 and 4.2 in the present Group 4 of Examples.

NCI-H322 cells = assay: In vivo efficacy, lung cancer animal model NCI-H322; design: species or system Nude mice (BALB/cJGpt-Foxn1nu/Gpt)
From the text: as §1, §2, §3, §4
A mouse model was established using NCI-H322 cells and ADCs 3d and PADCVE were grouped and studied, as described in sections 4.1 and 4.2 in the present Group 4 of Examples.

T24/nectin-4 cells = assay: In vivo efficacy, bladder cancer animal model T24/nectin-4; design: species or system Nude mice (BALB/cJGpt-Foxn1nu/Gpt); settings: T24/nectin-4 model; for Average weight (g) at the beginning / Average weight (g) at the end: mouse body weight
From the text: as §1, §2, §3, §4
A mouse model was established using T24/nectin-4 cells and ADCs 3d and PADCVE were grouped and studied, as described in sections 4.1 and 4.2 in the present Group 4 of Examples.

[8] = target: T3, recombinant extra-cellular domain of human Nectin-4 protein (Homo sapiens, UniProt Q96NY8); assay: BIAcore affinity for the antigen; assay type: binding; settings: human Nectin-4, pH 7.4
T3 construct: recombinant extra-cellular domain of human Nectin-4 protein; purchased Novoprotein Scientific Inc
T3 sequence (Q96NY8 32-349 limits assumed): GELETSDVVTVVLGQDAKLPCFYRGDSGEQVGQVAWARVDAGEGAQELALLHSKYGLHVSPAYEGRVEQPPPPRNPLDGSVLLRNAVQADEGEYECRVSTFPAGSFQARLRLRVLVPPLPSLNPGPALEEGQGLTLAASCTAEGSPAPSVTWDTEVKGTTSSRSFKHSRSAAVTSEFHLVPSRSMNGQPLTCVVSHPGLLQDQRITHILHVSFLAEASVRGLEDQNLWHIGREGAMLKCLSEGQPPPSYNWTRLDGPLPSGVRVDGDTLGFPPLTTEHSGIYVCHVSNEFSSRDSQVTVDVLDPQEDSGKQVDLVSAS
Protocol: Human Nectin-4 protein (purchased from Novoprotein Scientific Inc.) was subjected to buffer exchange with a desalting column using running reagent 1 (10 mM N-(2-hydroxyethyl)piperazine-N-2 sulfonic acid, 150 mM sodium chloride, 3 mM ethylene diamine tetraacetic acid, 0.005% Tween-20, with pH adjusted to 7.4). Samples to be detected were diluted to 5 μg/mL with the running reagent 1, and sequentially injected to the experimental channels with His capture chips at a flow rate of […] for about 400 RU. The capture of the ligand was not required for the reference channel. The human Nectin-4 protein was diluted to 50, 25, 12.5, 6.25, 3.125, 1.563, 0.781, 0.391, and 0 nM with the corresponding running reagent, and then the diluted human Nectin-4 protein was injected into the experimental channels and the reference channel at a flow rate of 30 μL/min. The association and dissociation time were 120 sec and 300 sec, respectively. The Biocore 8K analysis software was used to calculate KD values for each antibody. The reference channel was used for background subtraction.

FcRn [9] = target: T1, FcRn; assay: BIAcore affinity for Fc receptor FcRn; assay type: binding; settings: pH 6.0
Protocol: (§5) Human FcγR I (CD64), FcγR IIa (CD32a (H167)), FcγR IIb (CD32b), and FcγR IIIa (CD16a (V176)) proteins were diluted to 0.25 μg/mL with running reagent 1 (10 mM N-(2-hydroxyethyl)piperazine-N-2 sulfonic acid, 150 mM sodium chloride, 3 mM ethylene diamine tetraacetic acid, 0.005% Tween-20, with pH adjusted to 7.4), and FcRn protein was diluted to 0.25 μg/mL with running reagent 2 (2 mM sodium dihydrogen phosphate, 10 mM disodium hydrogen phosphate, 137 mM sodium chloride, 2.7 mM potassium chloride, 0.05% tween-20, with pH adjusted to 6.0) and all the diluted proteins were sequentially injected to the experimental channels with His capture chips (FC2) at a flow rate of […] for about 40 RU. The capture of the ligands was not required for the reference channel (FC1). Samples to be detected were diluted with corresponding running reagents, and then were injected into the experimental channels and the reference channel at a flow rate of 30 μL/min. Association and dissociation was monitored for certain time periods. The Biocore 8K analysis software was used to calculate KD values for each antibody. The reference channel (FC1) was used for background subtraction.

human FcγR I (CD64) [10] = target: T2, human FcγR I (CD64); assay: BIAcore affinity for Fc receptor FcγRI; assay type: binding; settings: pH 7.4
Protocol: as §5

[11] = target: T4, human FcγR IIa (human CD32a (H167)) (Homo sapiens, UniProt P12318); assay: BIAcore affinity for Fc receptor FcγRIIa; assay type: binding; settings: pH 7.4
T4 sequence (P12318 36-218 limits assumed): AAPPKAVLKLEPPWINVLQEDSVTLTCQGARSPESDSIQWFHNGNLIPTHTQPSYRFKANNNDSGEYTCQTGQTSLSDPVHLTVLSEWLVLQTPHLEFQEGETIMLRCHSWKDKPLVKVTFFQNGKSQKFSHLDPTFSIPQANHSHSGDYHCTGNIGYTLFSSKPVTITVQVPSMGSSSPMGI
Protocol: as §5

[12] = target: T5, human FcγR IIb (human CD32b) (Homo sapiens, UniProt P31994); assay: BIAcore affinity for Fc receptor FcγRIIb; assay type: binding; settings: pH 7.4
T5 sequence (P31994 43-310): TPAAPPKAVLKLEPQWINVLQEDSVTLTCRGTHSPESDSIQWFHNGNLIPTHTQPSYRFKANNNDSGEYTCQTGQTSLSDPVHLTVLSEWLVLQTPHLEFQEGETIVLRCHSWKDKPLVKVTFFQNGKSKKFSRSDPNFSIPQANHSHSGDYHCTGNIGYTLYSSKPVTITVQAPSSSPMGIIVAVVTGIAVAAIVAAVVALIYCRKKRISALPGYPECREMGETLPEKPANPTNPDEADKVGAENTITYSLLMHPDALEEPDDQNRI
Protocol: as §5

PC-3-Nectin4(2-4) cells = assay: Internalization activity, flow cytometry; assay type: cell-based
Protocol: Experiment method was as follows: the target cells at the logarithmic stage of growth were harvested by centrifugation, adjusted to a density of 5×10^5 cells/mL in complete medium (F-12K medium containing 10% FBS and 250 μg/ml G418). 1 mL of the cell suspension obtained was pipetted into EP tubes, i.e., 5×10^5 cells in each, which were then centrifuged. The supernatant was discarded and the cells were washed twice with PBS. […] (as the control group) and 37° C. (as the experiment groups) respectively. After incubation for 2 h, a fluorescently labeled secondary antibody, goat anti human IgG Fc-FITC (purchased from Sigma) was added and incubated for 1 h at 4° C. After the incubation, the fluorescence intensity was measured with a flow cytometer, and the internalization efficiency of each of the samples was calculated by the formula as follows: percent internalization at the time point tx=(1−the fluorescence intensity of the sample at 37° C./the fluorescence intensity of the sample at 4° C.)×100% (tx is the incubation time period x of the sample with the cells).

[13] = cited from earlier work

## PADCEV (Enfortumab Vedotin, purchased from Seattle Genetics) (antibody)
[1]
  Fluorescence intensity at 37° C. (Average), surface antibody left after internalization: 33100
  Fluorescence intensity at 37° C. (Median), surface antibody left after internalization: 25000
FcRn [2]
  Kd: 513 nM
Human FcγR I (CD64) [3]
  Kd: 12.3 nM
[4]
  Kd: 2770 nM
[5]
  Kd: 16.3 µM
[6]
  fluorescence intensity at 4° C. (Average): 84000
  fluorescence intensity at 4° C. (Median): 78900
[7]
  Kd: 4.87 nM

## PADCEV
MDA-MB-468 cells; 3 mg/kg IV at D0
  TV(D0): 133.1 mm^3
  T/C (%) (D21): 63%
  TGI % (D21): 37%
  TV(D21): 516.4 mm^3
  PR (D21), partial tumor regression: 0
MDA-MB-468 cells; 10 mg/kg IV at D0
  TV(D0): 139.5 mm^3
  T/C (%) (D21): 28%
  TGI % (D21): 72%
  TV(D21): 309.5 mm^3
  PR (D21), partial tumor regression: 0
NCI-H322 cells; 3 mg/kg IV at D0, D0 baseline
  TV(D0): 125.1 mm^3
NCI-H322 cells; 3 mg/kg IV at D0, D21
  T/C (%) (D21): 36%
  TGI % (D21): 64%
  TV(D21): 325.9 mm^3
NCI-H322 cells; 3 mg/kg IV at D0, D21, 8 animals per group
  PR (D21), partial tumor regression: 0
NCI-H322 cells; 10 mg/kg IV at D0, D0 baseline
  TV(D0): 124.1 mm^3
NCI-H322 cells; 10 mg/kg IV at D0, D21
  T/C (%) (D21): −23%
  TGI % (D21): 123%
  TV(D21): 95.9 mm^3
NCI-H322 cells; 10 mg/kg IV at D0, D21, 8 animals per group
  PR (D21), partial tumor regression: 7
T24/nectin-4 cells; 3 mg/kg IV at D0
  Average tumor weight (g) (D22): 0.23 g
  TGI (%) (D22): 90.7%
  Average weight (g) at the beginning: 22.0 g
  Average weight (g) at the end: 23.0 g
T24/nectin-4 cells; 10 mg/kg IV at D0
  Average tumor weight (g) (D22): 0.09 g
  TGI (%) (D22): 96.3%
  Average weight (g) at the beginning: 22.0 g
  Average weight (g) at the end: 23.3 g
[8]
  Kd: 4.87 nM
  ka: 1.05e+06 M⁻¹ s⁻¹
  kd: 0.00512 s⁻¹
FcRn [9]
  Kd: 513 nM
Human FcγR I (CD64) [10]
  Kd: 12.3 nM
[11]
  Kd: 2770 nM
[12]
  Kd: 16.3 µM
PC-3-Nectin4(2-4) cells; 2 h at 4° C. (control group), average
  Average fluorescence intensity 4° C.: 83966
PC-3-Nectin4(2-4) cells; 2 h at 4° C. (control group), median
  Median fluorescence intensity 4° C.: 78925
PC-3-Nectin4(2-4) cells; 2 h at 37° C., average
  Average fluorescence intensity 37° C.: 33129
PC-3-Nectin4(2-4) cells; 2 h at 37° C., median
  Median fluorescence intensity 37° C.: 25038
[13]; clinical studies
  adverse reactions accompanying treatment: fever, skin itching, peripheral neuropathy, dry eyes, neutrocytopenia
[13]; patients receiving chemotherapy and PD-1/PD-L1 inhibitor regimens
  medium overall survival: 12.9 months
[13]; versus patients receiving chemotherapy in the control group
  overall survival longer than chemotherapy control group: 3.9 months

Source: US20240226318A1, “ANTIBODY DRUG CONJUGATE TARGETING NECTIN 4 AND PREPARATION METHOD THEREFOR AND USE THEREOF” (JIANGSU MABWELL HEALTH PHARMACEUTICAL R&D CO., LTD., priority 2021, published 2024)
